Patent US11366102B2, “Spectographic metabolite-signature for identifying a subject's susceptibility to drugs” (Olaris, Inc., priority 2018, dated 2022)

Tests used:
[1] = test system: adenoid cystic carcinomas of the salivary gland; conditions: despite increased expression of c-kit; cited from earlier work
[2] = target: T1, CYP2A6 (Homo sapiens, UniProt P11509); conditions: off-target effect; cited from earlier work
T1 sequence (P11509 1-494): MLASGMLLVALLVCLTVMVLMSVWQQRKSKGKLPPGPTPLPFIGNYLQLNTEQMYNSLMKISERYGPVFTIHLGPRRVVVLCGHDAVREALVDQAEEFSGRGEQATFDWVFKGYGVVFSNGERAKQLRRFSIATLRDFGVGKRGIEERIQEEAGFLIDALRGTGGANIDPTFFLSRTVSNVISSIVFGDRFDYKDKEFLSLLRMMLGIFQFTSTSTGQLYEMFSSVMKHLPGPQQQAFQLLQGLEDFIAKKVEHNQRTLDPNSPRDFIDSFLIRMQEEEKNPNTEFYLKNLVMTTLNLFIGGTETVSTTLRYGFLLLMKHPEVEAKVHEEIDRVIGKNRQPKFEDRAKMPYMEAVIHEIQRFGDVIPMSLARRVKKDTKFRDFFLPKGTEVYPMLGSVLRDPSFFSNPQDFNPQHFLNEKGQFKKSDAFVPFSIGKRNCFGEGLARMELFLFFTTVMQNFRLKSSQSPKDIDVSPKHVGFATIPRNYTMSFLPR

[3] = target: CYP2C19 (Homo sapiens, UniProt P33261); conditions: off-target effect; cited from earlier work
[4] = test system: ER+/HER2− metastatic BC; experiment: Retrospective study of metastatic BC patients treated with CDK4/6 inhibitors, classified R or NR by change in sum of diameters of target tumors after 6 months, with overall survival; type: in vivo, human; conditions: for Patients within the NR group / Number of non-responders (NR): at least a 20% increase in the sum of diameters of target tumors after 6 months; for Patients within the NR group: 10 NR of 24 patients; for Number of non-responders (NR) / Number of responders (R): samples separated by inhibitor; for Number of responders (R): at least a 30% decrease in the sum of diameters of target tumors after 6 months of treatment
Text: Here we describe a retrospective study analyzing plasma-based metabolites from a baseline (BL) sample and after 2-months (2M) of treatment of 24 women with ER+/HER2-− metastatic BC treated with CDK4/6 inhibitors, palbociclib or ribociclib.

CYP2C19, sequence (P33261 whole entry): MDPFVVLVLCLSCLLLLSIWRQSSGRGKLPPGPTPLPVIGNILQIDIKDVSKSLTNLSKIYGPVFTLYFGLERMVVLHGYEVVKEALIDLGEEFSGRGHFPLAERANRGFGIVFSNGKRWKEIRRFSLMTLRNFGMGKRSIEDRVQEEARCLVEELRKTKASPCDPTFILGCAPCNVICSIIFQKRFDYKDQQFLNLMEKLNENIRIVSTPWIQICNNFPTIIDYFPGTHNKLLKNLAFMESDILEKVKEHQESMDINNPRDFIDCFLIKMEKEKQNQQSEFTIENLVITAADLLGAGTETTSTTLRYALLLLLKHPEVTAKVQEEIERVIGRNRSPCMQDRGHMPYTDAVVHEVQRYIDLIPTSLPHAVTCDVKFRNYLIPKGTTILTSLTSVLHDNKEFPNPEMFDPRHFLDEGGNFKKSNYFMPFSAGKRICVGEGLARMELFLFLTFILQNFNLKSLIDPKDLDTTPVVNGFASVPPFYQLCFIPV

Row | SMILES | Effect on adenoid cystic carcinomas of the salivary gland [1] | Inhibition of CYP2A6 [2] | Inhibition of CYP2C19 [3] | Patients within the NR group [4] [patients] | Number of non-responders (NR) [4] | Number of responders (R) [4]
1 | Cc1ccc(NC(=O)c2ccc(CN3CCN(C)CC3)cc2)cc1Nc1nccc(-c2cccnc2)n1 [imatinib] | no effect |  |  |  |  | 
2 | N#Cc1ccc(C(c2ccc(C#N)cc2)n2cncn2)cc1 [letrozole] |  | inhibits | inhibits |  |  | 
3 | CC(=O)c1c(C)c2cnc(Nc3ccc(N4CCNCC4)cn3)nc2n(C2CCCC2)c1=O [palbociclib] |  |  |  | 3 | 3 | 7
4 | CN(C)C(=O)c1cc2cnc(Nc3ccc(N4CCNCC4)cn3)nc2n1C1CCCC1 [ribociclib] |  |  |  | 7 | 6 | 8
